Results reported in patent US6835754B2, “Use of aryl nitrone compounds in methods for treating neuropathic pain” (Renovis, Inc., priority 2001, dated 2004).
Entries after “also recorded” stand apart in the source; their conditions may differ.

Legend:
[1] = system: male Swiss Webster mice, phenylquinone-induced writhing; experiment: Phenylquinone (PQ) writhing assay, % inhibition (Swiss Webster mice); assay type: in vivo; conditions: for inhibition at 30 mg/kg / % Inhibition of Writhing Response: 30 mg/kg orally in 1% methyl cellulose, 1 hour before PQ 2 mg/kg ip; for inhibition at 30 mg/kg: read-out: % Inhibition of Writhing Response
Protocol: Test compounds were prepared as a suspension in 1% methyl cellulose and dosed orally at a dose of 30 mg/kg to male Swiss Webster mice weighing between 15 and 25 g with 10 mice per group. Test compounds was given 1 hour before the injection of phenylquinone. Phenylquinone (Sigma) was injected intraperitoneally at a dose of 2 mg/kg. After a 5 minute acclimation period, the number of writhes was counted for a 5 minute observation period for each mouse. The total number of writhes for each test compound was compared with a vehicle group. Results were expressed as % inhibition compared to the vehicle treated group means (Table VII).
In related experiment, a dose response relationship was established for the compound of Example 1 using the same experimental protocl as above. […] This is shown graphically in FIG. 2.

[2] = system: ICR derived male mice, phenylquinone-induced writhing; experiment: Phenylquinone (PQ) Writhing assay, number of writhes (MDS Panlabs, ICR mice); assay type: in vivo; conditions: for analgesia relative to vehicle control group (PQ writhing): 100, 30 and 10 mg/kg orally, P<0.01 for all 3 doses, Dunnett's test; for # Writhes (X + SEM): per os, 60 min before PQ 2 mg/kg ip, vehicle 20.8 ± 0.7, **P<0.01
Protocol: The compounds of Example 20 and Example 16 administered orally at doses of 10, 30 and 100 mg/kg. Vehicle of 2% Tween 80 in distilled water was used.
In this study, ICR derived male mice provided by animal breeding center of MDS Panlabs Taiwan, Ltd. were used. Space allocation for 10 animals was 45×23×15 cm. Mice were housed in APEC^R (Allentown Gaging, Allentown, N.J. 08501, U.S.A.) cages in a positive pressure isolation (NuAire^R, Mode: Nu-605, airflow velocity 50±5 ft/min, HEPA Filter) and maintained in a controlled temperature (22°-24° C.) and humidity (60%-80%) environment with 12 hour light dark cycles for at least one week in MDS Panlabs Taiwan laboratory prior to be used. Free access to standard lab chow for mice (Fwusow Industry Co., Limited, Taiwan) and tap water was granted. All aspects of this work including housing, experimentation and disposal of animals were performed in general accordance with the International Guiding Principles for Biomedical Research Involving Animals (CIOMS Publication No. ISBN 92 90360194, 1985).
The method of Siegmund, E. et al., Proc. Soc. Exp. Biol. Med. 95: 729-731, 1957, “A method for evaluating both non-narcotic and narcotic analgesics” was used. One hour after vehicle or compound administration, the number of writhes was recorded for each mouse in groups of 10 animals during a 5 to 10 minute period following 2 mg/kg. 1.p. of phenylquinone.
Groups of 10 male ICR mice weighing 22±2 gm were employed. Three doses (10, 30 and 100 mg/kg) of test substances suspended in a vehicle of 2% Tween 80 were administered per os. The control group received vehicle alone. […] The mean±SEM value of writhing number for each treatment group was then calculated and Dunnett's test was applied for comparison between vehicle and treated groups. Differences were considered significant when P<0.01.

[3] = system: Chronic constriction injury (CCI) rats; experiment: Bennett chronic constriction injury (CCI) mononeuropathy, cold allodynia assay; assay type: in vivo, Sparague Dawley rats
Protocol: The peripheral mononeuropathy was induced by loose ligation of the sciatic nerve in anaesthetized rats. Ten days later, the nociceptive threshold was evaluated. The test compound is administered orally 1 hour prior to pain measurement. For comparison, a predose threshold was determined and a control experiment using 1% methyl cellulose was run. […] Animals were again tested 1-2 hrs post-dose. Predose and postdose average scores are determined.
In a related experiment a dose-response relationship for the compound of Example 20 was determined using the same experimental protocol. […] Animals were again tested 1 hr post-dose.

Rats (Sprague-Dawley) = experiment: Rat hot-plate assay (55° C.) for general analgesia; assay type: in vivo
Protocol: The purpose of the experiment was to determine if the compound of Example 16 has significant general analgesic activity as opposed to the desired activity against neuropathic pain. Test compound, 1% methylcellulose as a vehicle and morphine sulfate as a positive standard were tested for analgesic activity using a rat hot-plate assay (55° C.) of Eddy and Leimbach (J. Pharmacol. Ep. Ther 107; 385-393 (1953)) to evaluate nociceptive responses.
Rats (Sprague-Dawley, 217-227 g.) were used with 10 animals per group. Two pre-dose trials to nociceptive responses were determined before administration of compounds. Sixty minutes prior to testing, rats were dosed with either test compound (100 mg/kg, p.), as a suspension in 1% methylcellulose, or 1% methylcellulose as a vehicle ([…], p.). thirty minutes prior to testing, a third group was dosed with morphine sulfate (4.0 mg/kg, 2.0 ml/kg, sc) to test for nociceptive responses using a hot plate. Latency to rear paw licking response or jump response (1) was recorded using an electronic timer. The cut-off time for either response was 30 seconds. Statistical significance was assessed for paired groups using a Turkey test and between non-paired groups using Kruskal-Wallis test. A probability value of <0.05 was identified as statistically significant.

[4] = system: Rats, Type II collagen assay; experiment: Hargreaves test (withdrawal latency to heat) in Type II collagen assay; assay type: in vivo; conditions: rats Day 20 of Type II collagen assay
Protocol: The compound of Example 20 was further tested in a Hargreaves test, another accepted model for neuropathic pain.
Rats were tested on Day 20 in Type II collagen assay. […] Two hours after the 1st dose of drug on Day 20, animals were placed on a Hargreaves apparatus glass table. A high intensity light was placed under the one hind paw and illuminated, thus creating heat. At the same time, a clock was started. The light turned off, and the clock simultaneously stopped when the animal removed the paw. The time the rat is able to withstand the hear is considered withdrawal latency.

## CC(=O)Oc1c(C(C)(C)C)cc(/C=[N+](\[O-])C(C)(C)C)cc1C(C)(C)C [Example 1, α-(4-Acetoxy-3,5-di-tert-butylphenyl)-N-tert-butylnitrone]
[1]; Mus musculus
  inhibition at 30 mg/kg: 65%
[1]; Mus musculus, dose response, oral, mice
  ED50: 2.7 mg/kg

## CCC(=O)Oc1c(C(C)(C)C)cc(/C=[N+](\[O-])C(C)(C)C)cc1C(C)(C)C [Example 8, α-(4-propionyloxy-3,5-di-tert-butylphenyl)-N-tert-butylnitrone]
other
  melting point: 202 to 222 °C

## CC(=O)Oc1c(C(C)(C)C)cc(/C=[N+](/C)[O-])cc1C(C)(C)C [Example 9, α-(4-acetoxy-3,5-di-tert-butylphenyl)-N-methylnitrone]
other
  melting point: 136 to 143 °C

## COCOc1c(C(C)(C)C)cc(/C=[N+](\[O-])C(C)(C)C)cc1C(C)(C)C [Example 16, α-(4-Methoxymethoxy-3,5-di-tert-butylphenyl)-N-tert-butylnitrone]
[2]
  analgesia relative to vehicle control group (PQ writhing): significant
[2]; Dose 30 mg/kg
  # Writhes (X + SEM): 3.9 ± 1.3**
[2]; Dose 10 ml/kg as printed
  # Writhes (X + SEM): 14.9 ± 1.2**
[2]; Dose 100 ml/kg as printed
  # Writhes (X + SEM): 1.3 ± 0.6**
[3]; 100 mg/kg, p.o., tested 1-2 hrs post-dose, FIG. 3
  effectiveness in cold stimulus latency, Bennett CCI model: effective
Rats (Sprague-Dawley); 100 mg/kg orally, sixty minutes prior to testing
  effect on hot-plate latency compared with pre-dose: did not significantly affect
Rats (Sprague-Dawley); 100 mg/kg orally, sixty minutes prior to testing, pre-dose 7.9±1.0 seconds
  hot-plate latency, post-dose (mean±SEM): 9.7 ± 1.0 s

## CC(C)(C)c1cc(C=[N+]([O-])C(C)(C)C)cc(C(C)(C)C)c1O [Example 20, α-(4-hydroxy-3,5-di-tert-butylphenyl)-N-tert-butylnitrone]
[2]
  analgesia relative to vehicle control group (PQ writhing): significant
[2]; Dose 30 mg/kg
  # Writhes (X + SEM): 0.9 ± 0.5**
[2]; Dose 10 ml/kg as printed
  # Writhes (X + SEM): 3.1 ± 1.4**
[2]; Dose 100 ml/kg as printed
  # Writhes (X + SEM): 0.3 ± 0.2**
[1]; Mus musculus
  inhibition at 30 mg/kg: 62%
[3]; 30 mg/kg p.o., 1 hr post-dose, p<0.05 vs. vehicle postdose
  postdose latency score over vehicle, cold allodynia: significant postdose latency score over vehicle
[3]; 100 mg/kg p.o., 1 hr post-dose, p<0.01 vs. vehicle postdose
  postdose latency score over vehicle, cold allodynia: significant postdose latency score over vehicle
[3]; various doses (10, 30, 100 mg/kg, p.o.), 1 hr post-dose, FIG. 4
  latency in the cold allodynia assay: increased latency
[4]; Rattus norvegicus, po, two hours after dose
  ED50: 6.25 mg/kg
[4]; doses of 10-100 mg/kg, FIG. 5
  activity in Hargreaves test (withdrawal latency): Significant activity; also recorded: does exhibit activity

## CC(C)(C)CC(C)(C)[N+]([O-])=Cc1cc(C(C)(C)C)c(O)c(C(C)(C)C)c1 [Example 21, α-(4-hydroxy-3,5-di-tert-butylphenyl)-N-tert-octylnitrone]
[1]; Mus musculus
  inhibition at 30 mg/kg: 30%
other
  melting point: 113 to 115 °C

## CCCCCC[N+]([O-])=Cc1cc(C)c(O)c(C)c1 [Example 23, a-(4-hydroxy-3,5-dimethylphenyl)-N-hexylnitrone]
[1]
  % Inhibition of Writhing Response: 47%
[1]; mice, oral
  activity in PQ writhing model: Significant activity

## CC(C)(C)c1cc(C=[N+]([O-])C(C)(C)CO)cc(C(C)(C)C)c1O [Example 25, a-(4-hydroxy-3,5-di-tert-butylphenyl)-N-(1,1-dimethyl-2-hydroxyethyl)nitrone]
[1]
  % Inhibition of Writhing Response: 30%
[1]; mice, oral
  activity in PQ writhing model: Significant activity

## CCC(C)(C)[N+]([O-])=Cc1cc(C(C)(C)C)c(O)c(C(C)(C)C)c1 [Example 26, a-(4-hydroxy-3,5-di-tert-butylphenyl)-N-(1,1-dimethylpropyl)nitrone]
[1]
  % Inhibition of Writhing Response: 48%

## CC(C)[N+]([O-])=Cc1cc(C(C)(C)C)c(O)c(C(C)(C)C)c1 [Example 27, a-(4-hydroxy-3,5-di-tert-butylphenyl)-N-(1-methylethyl)nitrone]
[1]
  % Inhibition of Writhing Response: 30%

## CC(C)(C)c1cc(C=[N+]([O-])Cc2ccccc2)cc(C(C)(C)C)c1O [Example 28, a-(4-hydroxy-3,5-di-tert-butylphenyl)-N-benzylnitrone]
[1]
  % Inhibition of Writhing Response: 45%

## COCOc1c(C(C)(C)C)cc(C=[N+]([O-])CC2CCCCC2)cc1C(C)(C)C [Example 29, α-(4-methoxymethoxy-3,5-di-tert-butylphenyl)-N-cyclohexylmethylnitrone]
other
  melting point: 143.1 °C

## COCOc1c(C(C)(C)C)cc(/C=[N+](\[O-])Cc2ccccc2)cc1C(C)(C)C [Example 31, α-(4-methoxymethoxy-3,5-di-tert-butylphenyl)-N-benzylnitrone]
other
  melting point: 134.2 °C

## COc1c(C(C)(C)C)cc(/C=[N+](\[O-])C(C)(C)C)cc1C(C)(C)C [Example 32, α-(4-methoxy-3,5-di-tert-butylphenyl)-N-tert-butylnitrone]
[1]; Mus musculus
  inhibition at 30 mg/kg: 38%
other
  melting point: 223.1 °C

## CCOc1c(C(C)(C)C)cc(/C=[N+](\[O-])C(C)(C)C)cc1C(C)(C)C [Example 33, α-(4-ethoxy-3,5-di-tert-butylphenyl)-N-tert-butylnitrone]
[1]; Mus musculus
  inhibition at 30 mg/kg: 4%
other
  melting point: 212.1 °C

## CCOC(=O)COc1c(C(C)(C)C)cc(C=[N+]([O-])C(C)(C)C)cc1C(C)(C)C [Example 34, α-(4-carbethoxymethoxy-3,5-di-tert-butylphenyl)-N-tert-butylnitrone]
other
  melting point: 188 °C

## CN1CC[C@]23c4c5ccc(O)c4O[C@H]2[C@@H](O)C=C[C@H]3[C@H]1C5.O=S(=O)(O)O [morphine sulfate, reference compound]
Rats (Sprague-Dawley); 4.0 mg/kg sc, thirty minutes prior to testing
  effect on hot-plate mean latency compared with pre-dose: significantly increased
Rats (Sprague-Dawley); 4.0 mg/kg sc, thirty minutes prior to testing, pre-dose 9.9±1.0 seconds, P<0.001
  hot-plate mean latency to jump/hind paw licking response, post-dose (mean±SEM): 24.3 ± 2.3 s

## a-(4-hydroxy-3,5-dimethoxyphenyl)-N-tert-butylnitrone [Example 22]
[1]
  % Inhibition of Writhing Response: 32%

## a-(4-hydroxy-3,5-dimethylphenyl)-N-tert-butylnitrone [Example 24]
[1]
  % Inhibition of Writhing Response: 23%

## α-(4-Isobutanoyl-3,5-di-tert-butylphenyl)-N-tert-butylnitrone [Example 2]
[1]
  % Inhibition of Writhing Response: 29%

## α-(4-n-Butanoyl-3,5-di-tert-butylphenyl)-N-tert-butylnitrone [Example 3]
[1]
  % Inhibition of Writhing Response: 62%
